The structures appear in SMILES notation.

Holding throughout (type): cell-based
Experiment [1] relates to alpha-smooth muscle actin (α-SMA). As to the kind of experiment: Inhibition of TGF-β induced expression of alpha-smooth muscle actin in CFSC cells (western blot). The following applies: compound at 10 μM, TGF-β (10 ng/mL), 24 hours. The procedure: The ability of a compound to inhibit the TGF-β induced expression of alpha-smooth muscle actin (α-SMA) was evaluated in CCl4-treated fat storing (CFSC) cells. α-SMA is considered as a reliable marker of hepatic stellate cell activation and a key biomarker for liver fibrosis.
CFSC cells maintained in a DMEM medium supplemented with 10% fetal bovine serum were seeded to 12-well culture dishes and grown to a confluence of 60-70% the next day. Culture was changed to a serum-free DMEM medium and the cells were treated with the compound at 10 μM in the presence of TGF-β (10 ng/mL). The cells were incubated for another 24 hours. All culture was maintained at 37° C. in 5% carbon dioxide.
An NP-40 lysate solution (50 mM Tris, pH 7.4, 150 mM NaCl, 1% NP-40) with EDTA free cocktail added was used to lyse the cells on ice for 30 min. The lysate was collected and centrifuged at 4° C. for 10 min at 12,000 rpm. The pellet was discarded and the supernatant was transferred to a new tube. The cell lysate was loaded with 5× loading buffer and boiled for 10 min, resolved by 10% SDS-polyacrylamide gel electrophoresis (SDS-PAGE), and transferred to a PVDF membrane. The membrane was blocked with 5% skim milk in Tris-buffered saline and TWEEN® 20 (TBST; 10 mM Tris-HCl, pH 8.0, 150 mM NaCl, 0.1% TWEEN® 20) for 1 h at room temperature and then incubated with α-SMA and β-actin antibodies overnight at 4° C. After washing twice with TBST, the membrane was probed with a […] anti-immunoglobulin (1:5000 dilution) for 1 h at room temperature. After two subsequent rinses in TBST, immunoreactive products were reacted with ECL and visualized by a UVP CHEMSTUDIO™ imaging system. The western blotting bands are quantitated using an ImageJ software. The percentage of inhibition was obtained by calculating the percentage decrease in the band intensity compared to the one treated with TGF-β only.
The results are summarized in Table 1, where A represents a value no less than 80/% inhibition, B represents a value less than 80% but no less than 50% inhibition, C represents a value less than 50% but no less than 30% inhibition, and D represents a value less than 30% inhibition with a compound at 10 μM.
On the technique in general: Immunoblotting shows a protein as a band on a membrane.

In experiment [2] the test system is A549 (lung adenocarcinoma). The experiment in a line: Antiproliferative activity, CCK-8 cell viability. The following applies: Homo sapiens, 72 h, read-out: Inhibition of Cancerous Cells, A549. Here is the method:
(§1) The antiproliferative activity of a compound was determined in the following cell lines: MDA-MB-231 (breast cancer), HepG2 (liver cancer), SW480 (colon cancer), B16F10 (malignant melanoma), A431 (epidermoid carcinoma), A549 (lung adenocarcinoma), and HeLa (cervical cancer). MDA-MB-231, HepG2, SW480, B16F10, and A431 cells were cultured in Dulbecco's modified Eagle's medium (DMEM) containing 10% fetal bovine serum (FBS). HeLa cells were cultured in MEM/EBSS (MEM) containing 10% FBS. A549 cells were maintained in Kaighn's modification of Ham's F-12 medium containing 10% FBS. The Cell Counting Kit-8 (CCK-8) assay was used to determine the cell viability of cells following treatment with the compound.
(§2) Briefly, cells were seeded in a 96-well plate at a density of 2,000-5,000 cells/well. Following attachment, the cells were treated with the compound in media at a compound concentration of 3.3 μM, 10 μM, or 30 μM, or DMSO as a control. After the cells were incubated at 37° C. for 72 h, the CCK-8 solution (10 μL) was added to each well. After incubation at 37° C. for 4 h, the absorbance value of each well was determined using a multi-well plate reader at 450 nm. The percentage of cell viability was determined with respect to the DMSO-treated cells. The results were summarized in Table 2-4 below, wherein A represents no less than 50% inhibition of cell growth; B represents less than 50% but no less than 30% inhibition of cell growth; C represents less than 30% inhibition of cell growth.

Experiment [3] concerns B16F10 (malignant melanoma). The experiment in a line: Antiproliferative activity, CCK-8 cell viability. The following applies: Mus musculus, B16-F10, 72 h, read-out: Inhibition of Cancerous Cells, B16F10. The procedure: as §1, §2
Experiment [4] concerns HeLa (cervical cancer). As to the kind of experiment: Antiproliferative activity, CCK-8 cell viability. The following applies: Homo sapiens, 72 h, read-out: Inhibition of Cancerous Cells, HELA. The procedure:
as §1, §2

Experiment [5] has as its system HepG2 (liver cancer). As to the kind of experiment: Antiproliferative activity, CCK-8 cell viability. The following applies: Homo sapiens, 72 h, read-out: Inhibition of Cancerous Cells, HepG2. Here is the method:
as §1, §2

The subject of experiment [6] is MDA-MB-231 (breast cancer). The experiment in a line: Antiproliferative activity, CCK-8 cell viability. The following applies: Homo sapiens, 72 h, read-out: Inhibition of Cancerous Cells, MDA-MB-231. The procedure:
as §1, §2

In experiment [7] the test system is SW480 (colon cancer). As to the kind of experiment: Antiproliferative activity, CCK-8 cell viability. The following applies: Homo sapiens, 72 h, read-out: Inhibition of Cancerous Cells, SW480. The procedure:
as §1, §2

[8] abbreviates: compound concentration of 3.3 μM.
Setting [9] is: compound concentration of 10 μM.
The mark [10] stands for this setting: compound concentration of 30 μM.

For `CC1=C(CC(=O)O)c2cc(F)ccc2/C1=C\c1cccc(Oc2ccc(C(F)(F)F)cc2)c1` [Compound D26, 2-[(1Z)-5-Fluoro-2-methyl-1-({3-[4-trifluoromethylphenoxy]phenyl}-methylidene)-1H-inden-3-yl]acetic acid], the inhibition at 10 µM is at least 80% in experiment [1]; 30 to 50% in experiment [2] (setting [9]); at least 50% in experiment [3] (setting [9]); at least 50% in experiment [4] (setting [9]); at least 50% in experiment [5] (setting [9]); at least 50% in experiment [6] (setting [9]). Further, in experiment [7] (setting [9]), the inhibition at 10 µM was below 30%. Besides, the inhibition at 3.3 µM is 30 to 50% in experiment [2] (setting [8]); 30 to 50% in experiment [3] (setting [8]); 30 to 50% in experiment [4] (setting [8]); 30 to 50% in experiment [5] (setting [8]); at least 50% in experiment [6] (setting [8]); below 30% in experiment [7] (setting [8]). For the same compound, the inhibition at 30 µM in experiment [2] (setting [10]), in experiment [3] (setting [10]), in experiment [4] (setting [10]), in experiment [5] (setting [10]), in experiment [6] (setting [10]) and in experiment [7] (setting [10]) was at least 50% in each case.
Compound `CC1=C(CC(=O)O)c2cc(F)ccc2/C1=C\c1ccnc2ccccc12` [Compound C5, (Z)-2-(5-Fluoro-2-methyl-1-(quinolin-4-ylmethylene)-1H-inden-3-yl)acetic acid] gave an inhibition at 10 µM in experiment [1] of at least 80%.
`COc1ccc2c(c1)/C(=C\c1ccc(Oc3ccccc3)cc1)C(C)=C2CC(=O)O` [Compound D29, 2-[(1Z)-6-Methoxy-1-(4-(phenoxy)benzylidene)-2-methyl-1H-inden-3-yl]-acetic acid] showed an inhibition at 10 µM in experiment [1] of 50 to 80%.
`CC1=C(CC(=O)O)c2cc(F)ccc2/C1=C\c1ccc(Br)c2ccccc12` [Compound C3, (Z)-2-(1-((4-Bromonaphthalen-1-yl)methylene)-5-fluoro-2-methyl-1H-inden-3-yl)acetic acid] registered an inhibition at 10 µM in experiment [1] of at least 80%.
In turn, `CC(C)CC1=C(CC(=O)O)c2cc(F)ccc2/C1=C\c1ccc(Oc2ccc(F)cc2)cc1` [Compound D8, 2-[(1Z)-5-Fluoro-1-{[4-(4-fluorophenoxy)phenyl]methylidene}-2-(2-methyl-propyl)-1H-inden-3-yl]acetic acid] had an inhibition at 10 µM in experiment [1] of at least 80%.
Consider `CC1=C(CC(=O)O)c2cc(F)ccc2/C1=C/c1ccc(Oc2ccc(F)cc2)cc1` [Compound E2, 2-[(1E)-5-Fluoro-2-methyl-1-({4-[4-fluorophenoxy]phenyl}methylidene)-1H-inden-3-yl]acetic acid], for which the inhibition at 10 µM in experiment [1] is at least 80%.
Turning to `CC1=C(CC(=O)NO)c2cc(F)ccc2/C1=C/c1ccc(C(C)(C)C)cc1` [Compound E6, (E)-2-(1-(4-(Tert-butyl)benzylidene)-5-fluoro-2-methyl-1H-inden-3-yl)-N-hydroxyacetamide], in experiment [1], the inhibition at 10 µM lay in the range of 50 to 80%.
On the same count and under the same terms, then `CC1=C(CC(=O)O)c2cc(F)ccc2/C1=C\c1ccc(C2=CCCC2)cc1` [Compound D39, (Z)-2-(1-(4-(Cyclopent-1-en-1-yl)benzylidene)-5-fluoro-2-methyl-1H-inden-3-yl)acetic acid], with 50 to 80%; and `CON(C)C(=O)CC1=C(C)/C(=C/c2ccc(C(C)(C)C)cc2)c2ccc(F)cc21` [Compound B4, (Z)-2-(1-(4-(Tert-butyl)benzylidene)-5-fluoro-2-methyl-1H-inden-3-yl)-N-methoxy-N-methylacetamide], with at least 80%; and `CC1=C(CC(N)=O)c2cc(F)ccc2/C1=C\c1ccc(C(C)(C)C)cc1` [Compound D41, (Z)-2-(1-(4-(Tert-butyl)benZylidene)-5-fluoro-2-methyl-1H-inden-3-yl)acetamide], with at least 80%.
On the same count and under the same terms, then `CC1=C(CC(=O)O)c2cc(F)ccc2/C1=C\c1ccc(Oc2ccc(C(F)(F)F)cc2)cc1` [Compound D7, 2-[(1Z)-5-Fluoro-2-methyl-1-({4-[4-(trifluoromethyl)phenoxy]phenyl}-methylidene)-1H-inden-3-yl]acetic acid], with at least 80%; and `CC1=C(CC(=O)O)c2cc(F)ccc2/C1=C\c1ccc(COc2ccc(F)cc2)cc1` [Compound A1, 2-[(1Z)-5-Fluoro-1-(4-((4-fluorophenoxy)methyl)benzylidene)-2-methyl-1H-inden-3-yl]-acetic acid], with at least 80%; and `CC1=C(CC(=O)O)c2cc(F)ccc2/C1=C\c1cccc(Oc2ccc(C#N)cc2)c1` [Compound D24, 2-[(1Z)-5-Fluoro-2-methyl-1-({3-[4-cyanophenoxy]phenyl}methylidene)-1H-inden-3-yl]acetic acid], with at least 80%.
Same read-out and setting: the figure for `CC1=C(CC(=O)O)c2cc(F)ccc2/C1=C\c1ccc(Oc2cccc(C(C)(C)C)c2)cc1` [Compound D3, 2-[(1Z)-5-Fluoro-2-methyl-1-({4-[3-(tert-butyl)phenoxy]phenyl}methylidene)-1H-inden-3-yl]acetic acid] is at least 80%; for `CC1=C(CC(=O)NO)c2cc(F)ccc2/C1=C\c1ccc(C)c2ccccc12` [Compound C2, (Z)-2-(5-Fluoro-2-methyl-1-((4-methylnaphthalen-1-yl)methylene)-1H-inden-3-yl)-N-hydroxyacetamide] it is at least 80%; for `CC1=C(CC(=O)O)c2cc(F)ccc2/C1=C\c1ccc(Oc2cccc([N+](=O)[O-])c2)cc1` [Compound D6, 2-[(1Z)-5-Fluoro-2-methyl-1-({4-[3-nitrophenoxy]phenyl}methylidene)-1H-inden-3-yl]acetic acid] it is below 30%.
In experiment [1], `CC1=C(CC(=O)NO)c2cc(F)ccc2/C1=C\c1ccnc2ccccc12` [Compound C6, (Z)-2-(5-Fluoro-2-methyl-1-(quinolin-4-ylmethylene)-1H-inden-3-yl)-N-hydroxyacetamide] returned an inhibition at 10 µM of at least 80%.

In general, inhibition refers to the share of the control response that was lost under treatment.
